Eleven compounds from patent US5043332A, “Novel 11β-substituted -19-nor-steriods” (priority 1981, dated 1991) can be followed below.

In assay [1] the target is T1, Mineralcorticoidal receptor of kidneys of the rat (Rattus norvegicus, UniProt P22199).
T1 construct: from tissue; host or cells: rat kidney, 105,000 g supernatant (adrenalectomized male Sprague-Dawley rats)
T1 sequence (P22199 1-981): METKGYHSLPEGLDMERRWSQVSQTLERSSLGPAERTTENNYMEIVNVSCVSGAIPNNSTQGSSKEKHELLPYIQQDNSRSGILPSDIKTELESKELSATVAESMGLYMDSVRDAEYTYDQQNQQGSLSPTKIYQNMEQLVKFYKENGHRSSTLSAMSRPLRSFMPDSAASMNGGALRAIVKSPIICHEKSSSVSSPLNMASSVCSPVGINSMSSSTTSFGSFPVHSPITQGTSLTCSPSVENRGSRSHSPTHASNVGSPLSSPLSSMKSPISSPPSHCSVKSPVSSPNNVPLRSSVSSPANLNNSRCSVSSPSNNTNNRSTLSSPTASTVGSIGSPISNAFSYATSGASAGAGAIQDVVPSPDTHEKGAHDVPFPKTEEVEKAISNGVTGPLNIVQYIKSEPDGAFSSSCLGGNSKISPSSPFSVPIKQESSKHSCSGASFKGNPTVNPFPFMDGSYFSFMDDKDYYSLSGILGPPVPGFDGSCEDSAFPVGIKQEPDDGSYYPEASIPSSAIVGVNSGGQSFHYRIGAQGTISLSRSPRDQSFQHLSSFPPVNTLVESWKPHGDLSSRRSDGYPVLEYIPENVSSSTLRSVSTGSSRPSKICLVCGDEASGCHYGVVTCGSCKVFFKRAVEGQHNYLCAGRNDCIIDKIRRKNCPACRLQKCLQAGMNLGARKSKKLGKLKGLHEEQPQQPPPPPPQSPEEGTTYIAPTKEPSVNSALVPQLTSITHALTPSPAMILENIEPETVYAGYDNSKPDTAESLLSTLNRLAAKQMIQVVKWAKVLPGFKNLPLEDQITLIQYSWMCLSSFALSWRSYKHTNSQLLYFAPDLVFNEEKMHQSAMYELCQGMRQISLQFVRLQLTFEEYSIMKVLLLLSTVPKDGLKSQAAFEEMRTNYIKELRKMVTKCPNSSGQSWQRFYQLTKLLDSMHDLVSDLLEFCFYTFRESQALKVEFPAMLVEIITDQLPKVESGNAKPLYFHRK
Description: Mineralcorticoidal receptor binding (displacement of tritiated aldosterone). The procedure:
A. Mineralcorticoidal receptor of kidneys of the rat
Male Sprague-Dawley EOPS rats weighing 140 to 160 g surrenalectomized 4 to 8 days previously were killed and their kidneys were perfused in situ with 50 ml of a buffer (10 mM of Tris 0.25M of Saccharose and sufficient hydrochloric acid for a pH of 7.4). The kidneys were then removed, decapsulated and homogenized at 0° C. with a polytetrafluoroethylene-glass Potter (1 g of tissue per 3 ml of buffer). The homogenate was centrifuged for 10 minutes at 800 g at 9° C.
After elimination of the fixation of tritiated aldosterone with glucocorticoid receptor, 21-methyl-Δ^1,4,6 -pregnatriene-20-yne-11β,17β-diol-3-one fixed only with the glucocorticoid receptor was added to the supernatant at a final concentration of 10^-6 M. The suprenatant was ultracentrifuged at 105,000 g for 60 minutes and 0° C. and aliquoits of the resulting surnageant were incubated at 0° C. with a constant concentration (T) of tritiated aldosterone in the presence of increasing concentrations (0-2500×10^-9 M) of cold aldosterone or the cold test product. After a time (t) of incubation, the concentration of tied tritiated aldosterone (B) was measured by the technique of adsoprtion on carbon dextran.
(§1) The calculation of the relative affinity of […] (ARL) was identical for all of the above receptor tests. One traced the following two curves: the percentage of tied tritiated hormone B/T as a function of the logarithm of the cold hormone concentration and B/T as a function of the logarithm of the concentration of the cold test product. One determined the line of the equation. [formula]
(§2) The intersection of the I50 line and the curves permits one to determine the concentrations of the cold hormone of the reference (CH) and the cold test compound (CX) which inhibit by 50% the tieing of tritiated hormone with the receptor. The relative affinity of tieing (ARL) of the test product was determined by the equation: [formula]

Assay [2] deals with T2, Progestogen receptor of the uterus of rabbits (Oryctolagus cuniculus, UniProt P06186).
T2 construct: The uterus was removed, weighed and homogenized at 0° C; from tissue; host or cells: rabbit uterus, 105,000 g supernatant (estradiol-primed immature rabbits)
T2 sequence (P06186 1-930): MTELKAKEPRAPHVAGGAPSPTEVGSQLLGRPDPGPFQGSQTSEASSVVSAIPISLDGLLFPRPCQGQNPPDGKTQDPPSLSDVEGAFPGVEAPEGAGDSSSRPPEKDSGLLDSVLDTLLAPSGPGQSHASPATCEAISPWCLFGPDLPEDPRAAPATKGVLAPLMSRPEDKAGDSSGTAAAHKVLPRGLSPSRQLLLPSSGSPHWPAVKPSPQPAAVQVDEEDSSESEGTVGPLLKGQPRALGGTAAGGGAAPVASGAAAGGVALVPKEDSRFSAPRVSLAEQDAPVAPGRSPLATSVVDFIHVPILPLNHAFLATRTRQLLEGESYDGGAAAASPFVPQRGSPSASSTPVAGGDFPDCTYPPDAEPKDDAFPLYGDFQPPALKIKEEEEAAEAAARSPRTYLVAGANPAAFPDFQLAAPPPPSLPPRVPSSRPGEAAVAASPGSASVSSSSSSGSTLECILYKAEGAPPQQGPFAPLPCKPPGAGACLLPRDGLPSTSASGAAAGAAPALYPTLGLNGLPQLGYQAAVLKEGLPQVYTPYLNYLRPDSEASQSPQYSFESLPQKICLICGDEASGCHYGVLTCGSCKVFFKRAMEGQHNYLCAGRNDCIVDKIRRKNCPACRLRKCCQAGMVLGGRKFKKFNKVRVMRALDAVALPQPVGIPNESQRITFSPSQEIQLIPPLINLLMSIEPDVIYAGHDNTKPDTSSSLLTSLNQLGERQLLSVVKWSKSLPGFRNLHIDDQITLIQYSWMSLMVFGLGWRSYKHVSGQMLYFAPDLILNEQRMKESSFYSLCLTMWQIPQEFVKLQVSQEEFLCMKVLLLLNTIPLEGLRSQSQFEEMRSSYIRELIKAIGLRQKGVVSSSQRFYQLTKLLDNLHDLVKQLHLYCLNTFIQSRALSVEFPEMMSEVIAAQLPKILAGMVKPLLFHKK
Kind of assay: Progestogen receptor binding (displacement of tritiated product R). Further details: species or system rabbit. The note with it: for affinity for progestogen receptors (in words): conclusion. The procedure:
C. Progestogen receptor of the uterus of rabbits
Immature rabbits weighing about 1 kg received a cutaneous application of 25 μg of estradiol and the animals were killed 5 days later. The uterus was removed, weighed and homogenized at 0° C. with a polytetrafluoroethylene-glass Potter, in a buffered TS solution [Tris 10. mM, 0.25M of saccharose, HCl-pH of 7.4] with 1 g of tissue per 50 ml of TS. […] The concentration of tied tritiated R (B) was then measured for each incubate by the technique of adsoprtion on carbon-dextran.
as §1, §2

Where [3] appears, read: second table, incubation 24 H at 0° C.
Setting [4] is: second table, incubation 2 H at 0° C.

A value given as a limit tells only on which side of the number the result lay.

Turning to `CC#C[C@]1(OC(C)=O)CC[C@H]2[C@@H]3CCc4cc(O)ccc4[C@H]3[C@@H](c3ccc(N(C)C)cc3)C[C@@]21C` [2 (17 OAc), 11β-(4-dimethylaminophenyl)-17α-(prop-1-ynyl)-17β-acetoxy-Δ^1,3,5(10) -estratriene-3-ol], the “relative affinity of tieing (ARL), Mineralocorticoid” value in assay [1] (incubation 1 H at 0° C.) and in assay [1] (incubation 24 H at 0° C.) was < 0,1 each time. Moreover, the “relative affinity of tieing (ARL), Progestogen” value (from here on “relative affinity … Progestogen”) in assay [2] (incubation 2 H at 0° C.) came out at 5; in assay [2] (incubation 24 H at 0° C.), 52.
On to `CC#C[C@]1(O)CC[C@H]2[C@@H]3CCC4=CC(=O)[C@H](C)CC4=C3[C@@H](c3ccc(N(C)C)cc3)C[C@@]21C` [5 (2α), 2α-methyl-11β-(4-dimethylaminophenyl)-17α-(prop-1-ynyl)-Δ^4,9-estradiene-17β-ol-3-one], for which the “relative affinity of tieing (ARL), Mineralocorticoid” value in assay [1] (incubation 1 H at 0° C.) and in assay [1] (incubation 24 H at 0° C.) was < 0,1 each time. For the same compound, the “relative affinity … Progestogen” value in assay [2] (incubation 2 H at 0° C.) worked out at 40; in assay [2] (incubation 24 H at 0° C.), 39.
Turning to `CC#C[C@]1(O)CC[C@H]2[C@@H]3CCC4=CC(=O)[C@@H](C)CC4=C3[C@@H](c3ccc(N(C)C)cc3)C[C@@]21C` [5 (2β), 2-methyl-11β-(4-dimethylaminophenyl)-17α-(prop-1-ynyl)-Δ^4,9-estradiene-17β-ol-3-one], the “relative affinity of tieing (ARL), Mineralocorticoid” value in assay [1] (incubation 1 H at 0° C.) and in assay [1] (incubation 24 H at 0° C.) was < 0,1 throughout. In addition, the “relative affinity … Progestogen” value in assay [2] (incubation 2 H at 0° C.) and in assay [2] (incubation 24 H at 0° C.) was 44 in each case.
On to `CC#C[C@]1(O)CC[C@H]2[C@@H]3CCC4=CC(=O)C(C)(C)CC4=C3[C@@H](c3ccc(N(C)C)cc3)C[C@@]21C` [Example 1, 2,2-dimethyl-11β-(4-dimethylaminophenyl)-17α-(prop-1-ynyl)-Δ^4,9-estradiene-17β-ol-3-one], for which the “relative affinity of tieing (ARL), Mineralocorticoid” value in assay [1] (incubation 1 H at 0° C.) and in assay [1] (incubation 24 H at 0° C.) was < 0,1 each time. Besides, the “relative affinity … Progestogen” value in assay [2] (incubation 2 H at 0° C.) and in assay [2] (incubation 24 H at 0° C.) was 4 each time.
Consider `CC#C[C@]1(O)CC[C@H]2[C@@H]3CCC4=CC(=O)[C@H](C)CC4=C3[C@@H](c3ccc(N(C)C)cc3)C[C@@]21C` [Example 5, 2α-methyl-11β-(4-dimethylaminophenyl)-17α-(prop-1-ynyl)-Δ^4,9-estradiene-17β-ol-3-one], for which, in assay [2], the “affinity for progestogen receptors (in words)” value is listed as “very remarkable affinity”.
`CC#C[C@]1(O)CC[C@H]2[C@@H]3CCC4=CC(=O)C(C#N)(C#N)CC4=C3[C@@H](c3ccc(N(C)C)cc3)C[C@@]21C` [Example 9, 2,2-dicyano-11β-(4-dimethylaminophenyl)-17α-(prop-1-ynyl)-Δ^4,9-estradiene-17β-ol-3-one]: the “relative affinity of tieing (ARL), Mineralocorticoid” value in assay [1] (incubation 1 H at 0° C.) and in assay [1] (incubation 24 H at 0° C.) was < 0,1 in each case. In addition, the “relative affinity … Progestogen” value in assay [2] (incubation 2 H at 0° C.) and in assay [2] (incubation 24 H at 0° C.) was < 0,1 throughout.
Take `CC#C[C@]1(O)CC[C@H]2[C@@H]3CCC4=C(CCC(=O)C4)[C@H]3[C@@H](c3ccc(N(C)C)cc3)C[C@@]21C` [Example 10, 11β-(4-dimethylaminophenyl)-17α-(prop-1-ynyl)-Δ^5(10) -estrene-17β-ol-3-one]: the results for the “relative affinity of tieing (ARL), Mineralocorticoid” value in assay [1] (incubation 1 H at 0° C.) and in assay [1] (incubation 24 H at 0° C.) were 1,5 and < 0,1, respectively. For the same compound, the “relative affinity … Progestogen” value in assay [2] (incubation 2 H at 0° C.) is reported as 27; in assay [2] (incubation 24 H at 0° C.), 62.
As to `CC#C[C@]1(O)CC[C@H]2[C@@H]3CCC4=CC(=O)CCC4=C3[C@@H](c3ccc(N(C)C)cc3)C[C@@]21C` [Example 19, 11β-[4-(N,N-dimethylamino)-phenyl]-17α-(prop-1-ynyl)-Δ^4,9-estradiene-17β-ol-3-one], in assay [2], the “affinity for progestogen receptors (in words)” value is “very remarkable affinity”.
As to `C#C[C@@]1(O)CC[C@H]2[C@@H]3CCC4=CC(=O)CCC4=C3[C@@H](c3ccc(N(C)C)cc3)C[C@@]21C` [Example 21, 11β-[4-(N,N-dimethylamino)-phenyl]-17β-ethynyl-Δ^4,9-estradiene-17α-ol-3-one], the “relative affinity of tieing (ARL), Mineralocorticoid” value in assay [1] (setting [3]) is reported as 0,8. Also, the “relative affinity … Progestogen” value in assay [2] (setting [4]) is 10; in assay [2] (setting [3]), 4,3.
Take `CN(C)c1ccc([C@H]2C[C@@]3(C)[C@@H](CC[C@@]3(O)C#Cc3ccccc3)[C@@H]3CCC4=CC(=O)CCC4=C32)cc1` [Example 29, 11β-[4-(N,N-dimethylamino)-phenyl]-21-phenyl-19-nor-17α-Δ^4,9-pregnadiene-20-yne-17β-ol-3-one]: the figures for the “relative affinity … Progestogen” value in assay [2] (setting [4]) and in assay [2] (setting [3]) were 41 and 250, respectively.
Turning to `CC#C[C@]1(O)CC[C@H]2[C@@H]3CCC4=CC(=O)CCC4=C3[C@@H](c3ccc([N+](C)(C)[O-])cc3)C[C@@]21C` [Example 35, N-oxide of 11β-[4-(N,N-dimethylamino)-phenyl]-17α-(prop-1-ynyl)-Δ^4,9-estradiene-17β-ol-3-one], the “relative affinity … Progestogen” value in assay [2] (setting [4]) is given as 1,1; in assay [2] (setting [3]) it was 2,5.
